Where a name gives a salt, the structure may show the parent alone.
Test system: mitochondrial ATP production on non-small cell lung carcinoma cell lines NCI-H460
Experiment: Mitochondrial ATP analysis (Cell Titer Glo) in NCI-H460 cells
Format: cell-based
Settings: 1-hour incubation, with sodium iodoacetate (100 μM), concentration inhibiting 50% of mitochondrial ATP production, read-out: IC50 (mito ATP)
Method: In order to evaluate the inhibitory activity of the all compounds, an in vitro assay was developed which read out is directly linked to mitochondrial complex 1 inhibition. Since mitochondrial complex 1 contributes to the formation of membrane potential coupled to the mitochondrial ATP synthesis, complex 1 inhibition directly leads in cells to the inhibition of mitochondrial ATP production. Cellular ATP contents were measured in presence of either glycolysis inhibitor (sodium iodocetate) and/or mitochondrial inhibitors (F0F1-ATPase inhibitor: oligomycin or mitochondrial uncoupler: FCCP) to determine the ATP production part relying either on glycolytic or on mitochondrial metabolism.
Mitochondrial ATP Analysis
The compounds of the invention were evaluated for their ability to inhibit mitochondrial
ATP was measured using the Promega Cell Titer Glo kit and protocol. In summary, 1,000 cells were plated in 40 μL in a 384 well plate. 24 hours later, medium was replaced by 20 μl culture medium in presence of compounds: cells were treated in replicates of five with control (PBS), oligomycin A (10 μg/ml), FCCP (30 μM), or the compounds of the invention in dose effect both alone or in combination with sodium iodoacetate (100 μM). Following a 1-hour incubation, 20 μL of CellTtiter-glo™ reaction mix were added to each well for a final volume of 40 μL. Plates were then analyzed for luminescence with a Perkin Elmer EnVision. By comparing the different conditions, global ATP and percentages of both glycolytic and mitochondrial ATP were determined.
The mitochondrial ATP production was calculated as the remaining ATP under iodoacetate treatment minus basal ATP (ATP content under iodoacetate and oligomycin treatment). Inhibitory activity of the compounds on mitochondrial ATP in NCI-H460 cells is expressed as the concentration needed to inhibit 50% of mitochondrial ATP production (IC50, M).

| Structure (SMILES) | IC50 |
| --- | --- |
| COc1ccc(C(O)COc2ccc(-c3nsc(-c4ccc(OCC(O)c5ccc(OC)c(OC)c5)cc4)n3)cc2)cc1OC (single isomer, unassigned) [Compound I-41, 1-(3,4-dimethoxyphenyl)-2-[4-[5-[4-[2-(3,4-dimethoxyphenyl)-2-hydroxy-ethoxy]phenyl]-1,2,4-thiadiazol-3-yl]phenoxy]ethanol] | 539 nM |
| COc1ccc(C(O)COc2ccc(-c3csc(-c4ccc(OCC(O)c5ccc(OC)c(OC(F)F)c5)cc4)n3)cc2)cc1OC(F)F (single isomer, unassigned) [Compound I-49, 1-[3-(difluoromethoxy)-4-methoxy-phenyl]-2-[4-[2-[4-[2-[3-(difluoromethoxy)-4-methoxy-phenyl]-2-hydroxy-ethoxy]phenyl]thiazol-4-yl]phenoxy]ethanol] | > 10000 nM |
| COc1ccc(C(O)COc2ccc(-c3csc(-c4ccc(OCC(O)c5ccc(OC)c(OC(F)F)c5)cc4)n3)cc2)cc1OC(F)F (single isomer, unassigned) [Compound I-50, 1-[3-(difluoromethoxy)-4-methoxy-phenyl]-2-[4-[2-[4-[2-[3-(difluoromethoxy)-4-methoxy-phenyl]-2-hydroxy-ethoxy]phenyl]thiazol-4-yl]phenoxy]ethanol] | 1340 nM |
| COc1cc(C(O)COc2ccc(-c3csc(-c4ccc(OCC(O)c5ccc(OC(F)F)c(OC)c5)cc4)n3)cc2)ccc1OC(F)F (single isomer, unassigned) [Compound I-52, 1-[4-(difluoromethoxy)-3-methoxy-phenyl]-2-[4-[2-[4-[2-[4-(difluoromethoxy)-3-methoxy-phenyl]-2-hydroxy-ethoxy]phenyl]thiazol-4-yl]phenoxy]ethanol] | > 10000 nM |

Continued, values first:

| IC50 | Structure (SMILES) |
| --- | --- |
| 8270 nM | COc1ccc(C(O)COc2ccc(-c3nc(C)c(-c4ccc(OCC(O)c5ccc(OC)c(OC)c5)cc4)o3)cc2)cc1OC (single isomer, unassigned) [Compound I-5, 1-(3,4-dimethoxyphenyl)-2-[4-[2-[4-[2-(3,4-dimethoxyphenyl)-2-hydroxy-ethoxy]phenyl]-4-methyl-oxazol-5-yl]phenoxy]ethanol] |
| 197 nM | COc1ccc(C(O)COc2ccc(-c3csc(-c4ccc(OCC(O)c5ccc(OC)c(OC)c5)cc4)n3)cc2)cc1OC (single isomer, unassigned) [Compound I-23, 1-(3,4-dimethoxyphenyl)-2-[4-[2-[4-[2-(3,4-dimethoxyphenyl)-2-hydroxy-ethoxy]phenyl]thiazol-4-yl]phenoxy]ethanol] |
| 156 nM | COc1ccc(C(O)COc2ccc(-c3nc(-c4ccc(OC(C)(C)C(O)c5ccc(OC)c(OC)c5)cc4)cs3)cc2)cc1OC (single isomer, unassigned) [Compound I-67, 1-(3,4-dimethoxyphenyl)-2-[4-[2-[4-[2-(3,4-dimethoxyphenyl)-2-hydroxy-ethoxy]phenyl]thiazol-4-yl]phenoxy]-2-methyl-propan-1-ol] |
| 32.8 nM | COc1ccc(C(O)COc2ccc(-c3nc(-c4ccc(OC(C)(C)C(O)c5ccc(OC)c(OC)c5)cc4)cs3)cc2)cc1OC (single isomer, unassigned) [Compound I-68, 1-(3,4-dimethoxyphenyl)-2-[4-[2-[4-[2-(3,4-dimethoxyphenyl)-2-hydroxy-ethoxy]phenyl]thiazol-4-yl]phenoxy]-2-methyl-propan-1-ol] |
| > 10000 nM | COc1ccc(C(O)COc2ccc(-c3cn(CCN4CCOCC4)c(-c4ccc(OCC(O)c5ccc(OC)c(OC)c5)cc4)n3)cc2)cc1OC (centres unmarked) [Compound I-60, 1-(3,4-dimethoxyphenyl)-2-[4-[2-[4-[2-(3,4-dimethoxyphenyl)-2-hydroxy-ethoxy]phenyl]-1-(2-morpholinoethyl)imidazo1-4-yl]phenoxy]ethanol hydrochloride] |

Same assay, conditions: Homo sapiens, NCI-H460, 1 h, 1-hour incubation, with sodium iodoacetate (100 μM), concentration inhibiting 50% of mitochondrial ATP production, read-out: IC50 (mito ATP)

| Structure (SMILES) | IC50 |
| --- | --- |
| COc1cc(C(O)COc2ccc(-c3csc(-c4ccc(OCC(O)c5ccc(OC(F)F)c(OC)c5)cc4)n3)cc2)ccc1OC(F)F (single isomer, unassigned) [Compound I-51, 1-[4-(difluoromethoxy)-3-methoxy-phenyl]-2-[4-[2-[4-[2-[4-(difluoromethoxy)-3-methoxy-phenyl]-2-hydroxy-ethoxy]phenyl]thiazol-4-yl]phenoxy]ethanol] | > 10000 nM |
| COc1cc(C(O)COc2ccc(-c3coc(-c4ccc(OCC(O)c5ccc(Cl)c(OC)c5)cc4)n3)cc2)ccc1Cl (centres unmarked) [Compound I-15, 1-(4-chloro-3-methoxy-phenyl)-2-[4-[2-[4-[2-(4-chloro-3-methoxy-phenyl)-2-hydroxy-ethoxy]phenyl]oxazol-4-yl]phenoxy]ethanol] | 1550 nM |
| COc1cc(C(O)COc2ccc(-c3coc(-c4ccc(OCC(O)c5ccc(F)c(OC)c5)cc4)n3)cc2)ccc1F (centres unmarked) [Compound I-16, 1-(4-fluoro-3-methoxy-phenyl)-2-[4-[2-[4-[2-(4-fluoro-3-methoxy-phenyl)-2-hydroxy-ethoxy]phenyl]oxazol-4-yl]phenoxy]ethanol] | 354 nM |
| COc1ccc(C(O)COc2ccc(-c3coc(-c4ccc(OCC(O)c5ccc(OC)c(F)c5)cc4)n3)cc2)cc1F (centres unmarked) [Compound I-17, 1-(3-fluoro-4-methoxy-phenyl)-2-[4-[2-[4-[2-(3-fluoro-4-methoxy-phenyl)-2-hydroxy-ethoxy]phenyl]oxazol-4-yl]phenoxy]ethanol] | 3960 nM |
| COc1cc(C(O)COc2ccc(-c3coc(-c4ccc(OCC(O)c5cc(OC)c(OC)c(OC)c5)cc4)n3)cc2)cc(OC)c1OC (centres unmarked) [Compound I-20, 2-[4-[2-[4-[2-hydroxy-2-(3,4,5-trimethoxyphenyl)ethoxy]phenyl]oxazol-4-yl]phenoxy]-1-(3,4,5-trimethoxyphenyl)ethanol] | 1420 nM |

Next, values leading:

| IC50 | Structure (SMILES) |
| --- | --- |
| 41.8 nM | COc1ccc(C(O)C(C)(C)Oc2ccc(-c3csc(-c4ccc(OC(C)(C)C(O)c5ccc(OC)c(OC)c5)cc4)n3)cc2)cc1OC (single isomer, unassigned) [Compound I-28, 1-(3,4-dimethoxyphenyl)-2-[4-[2-[4-[2-(3,4-dimethoxyphenyl)-2-hydroxy-1,1-dimethyl-ethoxy]phenyl]thiazol-4-yl]phenoxy]-2-methyl-propan-1-ol] |
| 281 nM | COc1ccc(C(O)COc2ccc(-c3nsc(-c4ccc(OCC(O)c5ccc(OC)c(OC)c5)cc4)n3)cc2)cc1OC (single isomer, unassigned) [Compound I-40, 1-(3,4-dimethoxyphenyl)-2-[4-[5-[4-[2-(3,4-dimethoxyphenyl)-2-hydroxy-ethoxy]phenyl]-1,2,4-thiadiazol-3-yl]phenoxy]ethanol] |
| > 10000 nM | COc1ccc(C(O)COc2ccc(-c3nc(C)c(-c4ccc(OCC(O)c5ccc(OC)c(OC)c5)cc4)o3)cc2)cc1OC (single isomer, unassigned) [Compound I-46, 1-(3,4-dimethoxyphenyl)-2-[4-[2-[4-[2-(3,4-dimethoxyphenyl)-2-hydroxy-ethoxy]phenyl]-4-methyl-oxazol-5-yl]phenoxy]ethanol] |
| 956 nM | COc1ccc(C(O)COc2ccc(-c3c[nH]c(-c4ccc(OCC(O)c5ccc(OC)c(OC)c5)cc4)n3)cc2)cc1OC (centres unmarked) [Compound I-53, 1-(3,4-dimethoxyphenyl)-2-[4-[2-[4-[2-(3,4-dimethoxyphenyl)-2-hydroxy-ethoxy]phenyl]-1H-imidazol-4-yl]phenoxy]ethanol] |
| 672 nM | COc1ccc(C(O)C(C)(C)Oc2ccc(-c3c[nH]c(-c4ccc(OC(C)(C)C(O)c5ccc(OC)c(OC)c5)cc4)n3)cc2)cc1OC (centres unmarked) [Compound I-54, 1-(3,4-dimethoxyphenyl)-2-[4-[2-[4-[2-(3,4-dimethoxyphenyl)-2-hydroxy-1,1-dimethyl-ethoxy]phenyl]-1H-imidazol-4-yl]phenoxy]-2-methyl-propan-1-ol] |
| 2750 nM | COc1ccc(C(O)C(C)(C)Oc2ccc(-c3cn(CCN4CCOCC4)c(-c4ccc(OC(C)(C)C(O)c5ccc(OC)c(OC)c5)cc4)n3)cc2)cc1OC (centres unmarked) [Compound I-59, 1-(3,4-dimethoxyphenyl)-2-[4-[2-[4-[2-(3,4-dimethoxyphenyl)-2-hydroxy-1,1-dimethyl-ethoxy]phenyl]-1-(2-morpholinoethyl)imidazo1-4-yl]phenoxy]-2-methyl-propan-1-ol] |
